Results: the SangsterLogP compilation

Tests used:
[1] = method code SF-AS, from Fulcrand, P.; Berge, G.; Noel, A. (1978). Hydrazides as monoamine oxidase inhibitors. Hansch and Free Wilson correlations. Eur J Med Chem, 13(2)177-182.
[2] = method code SF, from Fulcrand, P.; Berge, G.; Noel, A. (1978). Hydrazides as monoamine oxidase inhibitors. Hansch and Free Wilson correlations. Eur J Med Chem, 13(2)177-182.

SMILES | logP [1] | logP [2]
COc1ccc(OCC(=O)NNC(C)C)cc1 | 1.21 | –
CC(C)NNC(=O)C(C)(C)Oc1ccc(Cl)cc1 | 2.56 | –
Cc1ccc(OCC(=O)NNC(C)c2ccccc2)cc1 (centres undefined) | 2.87 | –
CC(C)NNC(=O)COc1ccccc1Cl | 1.82 | –
CC(C)NNC(=O)COc1ccccc1 | 1.24 | –
CC(C)NNC(=O)COc1ccc(Cl)cc1 | – | 2.01
CC(C)NNC(=O)C(C)Oc1ccccc1Cl (centres undefined) | 2 | –
CC(C)NNC(=O)C(C)Oc1ccccc1 (centres undefined) | 1.39 | –
CC(C)NNC(=O)COc1cccc(Cl)c1 | 1.91 | –
CC(C)NNC(=O)C(C)Oc1ccc(Cl)cc1 (centres undefined) | 2.14 | –
Cc1cccc(OC(C)C(=O)NNC(C)C)c1 (centres undefined) | 1.88 | –
Cc1ccc(OCC(=O)NNC(C)C)cc1 | 1.81 | –
Cc1cccc(OCC(=O)NNC(C)C)c1 | 1.77 | –
O=C(COc1ccc(Cl)cc1)NNCc1ccccc1 | 2.92 | –
CC(C)NNC(=O)C(C)Oc1cccc(Cl)c1 (centres undefined) | 2.18 | –
CC(C)NNC(=O)C(C)(C)Oc1ccccc1 | 1.88 | –
Cc1ccccc1OCC(=O)NNC(C)C | 1.83 | –
COc1ccccc1OCC(=O)NNC(C)C | 1.11 | –
CCNNC(=O)COc1ccccc1 | 1 | –
COc1ccc(OCC(=O)NNC(C)c2ccccc2)cc1 (centres undefined) | 2.39 | –
O=C(COc1ccccc1)NNCc1ccccc1 | 2.16 | –
CC(NNC(=O)COc1ccccc1)c1ccccc1 (centres undefined) | 2.46 | –
COc1cccc(OCC(=O)NNC(C)C)c1 | 1.33 | –
CCNNC(=O)COc1ccc(Cl)cc1 | 1.73 | –
